Data reported in ChEMBL document CHEMBL1145504, “Sensitivity of monkey B virus (Cercopithecine herpesvirus 1) to antiviral drugs: role of thymidine kinase in antiviral activities of substrate analogs and acyclonucleosides” (Antimicrob Agents Chemother, 2007).
Several values for one entry are separate records, joined by “and”; a condition that tells them apart may be missing. Identical values can stand only once. Activity calls are given as the source filed them. The calls are words filed in the database; no cut-off is given here.

T1: Thymidine kinase (Macacine herpesvirus 1, UniProt A3RLP8)
T1 sequence (A3RLP8 whole entry): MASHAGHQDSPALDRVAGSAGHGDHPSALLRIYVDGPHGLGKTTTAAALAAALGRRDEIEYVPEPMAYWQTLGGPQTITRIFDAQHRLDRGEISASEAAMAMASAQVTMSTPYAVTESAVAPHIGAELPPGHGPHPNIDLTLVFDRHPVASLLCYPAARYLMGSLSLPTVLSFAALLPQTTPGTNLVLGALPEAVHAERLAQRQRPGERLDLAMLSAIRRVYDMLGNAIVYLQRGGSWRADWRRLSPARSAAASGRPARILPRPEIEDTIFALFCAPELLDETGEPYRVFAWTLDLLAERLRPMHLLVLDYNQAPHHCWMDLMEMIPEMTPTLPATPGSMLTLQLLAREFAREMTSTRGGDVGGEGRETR

T2: Thymidine kinase (Macacine herpesvirus 1) (UniProt A3RLP8)
T2 sequence (whole entry): T1 sequence (A3RLP8 whole entry)

B1: Thymidine kinase (Macacine herpesvirus 1), A3RLP8 (protein)
chain: T1 sequence (A3RLP8 whole entry)
B2: Thymidine kinase (Human alphaherpesvirus 1), Q9QNF7 (protein)
chain: MASYPCHQHASAFDQAARSRGHSNRRTALRPRRQQEATEVRLEQKMPTLLRVYIDGPHGMGKTTTTQLLVALGSRDDIVYVPEPMTYWQVLGASETIANIYTTQHRLDQGEISAGDAAVVMTSAQITMGMPYAVTDAVLAPHIGGEAGSSHAPPPALTLIFDRHPIAALLCYPAARYLMGSMTPQAVLAFVALIPPTLPGTNIVLGALPEDRHIDRLAKRQRPGERLDLAMLAAIRRVYGLLANTVRYLQGGGSWREDWGQLSGTAVPPQGAEPQSNAGPRPHIGDTLFTLFRAPELLAPNGDLYNVFAWALDVLAKRLRPMHVFILDYDQSPAGCRDALLQLTSGMVQTHVTTPGSIPTICDLARTFAREMGEAN

What was measured:
[1] = molecular target: T1, Thymidine kinase
[2] = molecular target: T2, Thymidine kinase (Macacine herpesvirus 1); assay: Activity of Herpes B virus recombinant thymidine kinase at 100 uM; conditions: Macacine alphaherpesvirus 1
[3] = system: Macacine alphaherpesvirus 1; assay: microbe, parasite or virus in culture; type: functional, organism-based; conditions: Macacine alphaherpesvirus 1, Vero
[4] = Cytotoxicity against african green monkey Vero cells after 2 days; type: cell-based; conditions: chlorocebus sabaeus
[5] = system: Macacine alphaherpesvirus 1; assay: microbe, parasite or virus in culture; type: functional, organism-based; conditions: Macacine alphaherpesvirus 1, Vero; remark: listed apart in the source
[6] = system: Human alphaherpesvirus 1; assay: microbe, parasite or virus in culture; type: functional, organism-based; conditions: Human alphaherpesvirus 1, F, Vero
[7] = molecular target: T2, Thymidine kinase (Macacine herpesvirus 1); conditions: Macacine alphaherpesvirus 1; 100 uM
[8] = molecular target: T2, Thymidine kinase (Macacine herpesvirus 1); assay: Activity of Herpes B virus recombinant thymidine kinase at 1 mM; conditions: Macacine alphaherpesvirus 1
[9] = system: Macacine alphaherpesvirus 1; assay: microbe, parasite or virus in culture; type: functional, organism-based; conditions: Macacine alphaherpesvirus 1, Vero; remark: listed apart in the source
[10] = substrate: Cc1cn([C@H]2C[C@H](O)[C@@H](CO)O2)c(=O)[nH]c1=O; assay: (§1) Activity of Herpes B virus recombinant thymidine kinase; conditions: Macacine alphaherpesvirus 1
[11] = substrate: O=c1[nH]c(Nc2ccccc2)nc2c1ncn2CCCCO; assay: as §1; conditions: Macacine alphaherpesvirus 1
[12] = substrate: Cc1cn([C@H]2C[C@H](O)[C@@H](CO)O2)c(=O)[nH]c1=O; conditions: Human alphaherpesvirus 1

Row | Molecule | IC50 [1] [µM] | Activity [2] | EC50 [3] [µM] | CC50 at 48 h [4] [µM] | EC50 [5] [µM] | EC50 [6] [µM] | other results
1 | CCCc1cn([C@H]2C[C@H](O)[C@@H](CO)O2)c(=O)[nH]c1=O | 4.2 | 31% |  |  |  |  | 
2 | Nc1nc2c(ncn2CCCCO)c(=O)[nH]1 | 177 | 94% |  |  |  |  | 
3 | CCc1cn([C@@H]2C[C@H](O)[C@@H](CO)O2)c(=O)[nH]c1=O | 52 |  |  |  |  |  | 
4 | O=c1[nH]c(Nc2cccc(C(F)(F)F)c2)nc2nc[nH]c12 | 3.5 |  |  |  |  |  | 
5 | O=c1[nH]c(Nc2ccccc2)nc2c1ncn2CCCCO |  | 200% | > 330 | > 660 | > 330 | 330 | 
6 | CN(C)CCCCn1cnc2c(O)nc(Nc3ccccc3)nc21 | 1.2 |  |  |  |  |  | 
7 | Cc1cc(=O)[nH]c(=O)n1[C@@H]1O[C@H](CO)[C@@H](O)[C@H]1O |  |  |  |  |  |  | Activity [7]: inactive
8 | O=c1ccn([C@@H]2O[C@H](CO)[C@H](O)[C@@H]2O)c(=O)[nH]1 |  |  |  |  |  |  | Activity [7]: inactive
9 | O=c1[nH]c(=O)n(C2C[C@H](O)[C@@H](CO)O2)cc1/C=C/Br (single isomer, unassigned) |  | inactive |  |  |  |  | Activity [8]: inactive
10 | O=c1[nH]c(=O)n(C2C[C@H](O)[C@@H](CO)O2)cc1I (single isomer, unassigned) |  | 94% |  |  |  |  | 
11 | Cc1cn([C@H]2C[C@H](O)[C@@H](CO)O2)c(=O)[nH]c1=O (stereo in doubt; form 1) |  | 130% |  |  |  |  | 
12 | Cc1cn([C@H]2C[C@H](O)[C@@H](CO)O2)c(=O)[nH]c1=O (stereo in doubt; form 2) |  | 100% |  |  |  |  | 
13 | Nc1nc2c(ncn2COCCO)c(=O)[nH]1 [ACYCLOVIR] |  | inactive | 112 | > 890 | 118 | 1.4 | Activity [8]: inactive; EC50 [9]: 47.5 µM
14 | O=c1[nH]c(=O)n([C@H]2C[C@H](O)[C@@H](CO)O2)cc1/C=C/Br [BRIVUDINE] |  | inactive | > 300 | > 600 | > 300 | 0.12 | Activity [8]: inactive
15 | Nc1ccn(C[C@@H](CO)OCP(=O)(O)O)c(=O)n1 [CIDOFOVIR] | 900 | inactive | 28.9 | > 720 | 21.6 | 14.4 | Activity [8]: inactive
16 | CCc1cn([C@H]2C[C@H](O)[C@@H](CO)O2)c(=O)[nH]c1=O [EDOXUDINE] | 0.15 | 82% | 37.4 | > 780 | 48 | 2.1 | EC50 [9]: 13.3 µM
17 | O=C(O)P(=O)(O)O [FOSCARNET] |  |  | > 500 | > 1 | 250 | 250 | 
18 | Nc1nc(O)c2ncn(COC(CO)CO)c2n1 [GANCICLOVIR] | 800 |  |  | 666 |  |  | 
19 | Nc1nc2c(ncn2COC(CO)CO)c(=O)[nH]1 [GANCICLOVIR] |  | inactive | 14.5 |  | 23.5 | 0.7 | Activity [8]: inactive; EC50 [9]: 19.2 µM
20 | O=c1[nH]c(=O)n([C@H]2C[C@H](O)[C@@H](CO)O2)cc1I [IDOXURIDINE] |  | 58% | 11.2 | 6.8 | 8.5 | 2.8 | 
21 | Nc1nc(O)c2ncn(CCC(CO)CO)c2n1 [PENCICLOVIR] |  | 72% | 17 |  | 25.3 | 4.7 | EC50 [9]: 17.3 µM
22 | Nc1nc2c(ncn2CCC(CO)CO)c(=O)[nH]1 [PENCICLOVIR] | 84.4 |  |  | > 790 |  |  | 
23 | O=c1[nH]c(=O)n([C@H]2C[C@H](O)[C@@H](CO)O2)cc1C(F)(F)F [TRIFLURIDINE] | 2 | 55% | 1.7 | 50.6 | 3.4 | < 1.7 | 
24 | Nc1ncnc2c1ncn2[C@@H]1O[C@H](CO)[C@@H](O)[C@@H]1O [VIDARABINE] |  |  | 28 | 38 | 35 | 7 | Activity [7]: inactive
25 | B1 |  |  |  |  |  |  | Km [10]: 0.7 µM and 0.65 µM; Vmax (nmol/hr/microg) [10]: 0.2 and 0.15; Km [11]: 7.4 µM; Vmax (nmol/hr/microg) [11]: 3.9
26 | B2 |  |  |  |  |  |  | Km [12]: 1 µM
